Results on three compounds are retold here after article PMC3949708, “Identification and Biosynthesis of a Novel Xanthomonadin-Dialkylresorcinol-Hybrid from Azoarcus sp. BH72” (PLoS ONE, 2014).

Each structure is given as a SMILES string.

One experiment deals with T1, ArcT (Azoarcus olearius, UniProt A1K222).
T1 construct: gene azo0260; full gene; CherryTag-His6 fusion cut off with TEV protease; E. coli BL21 (DE3) Star
Nature of the experiment: MALDI-MS ATP-pyrophosphate isotopic exchange. In kind it is biochemical. Conditions: MgCl2, pyrophosphate, 20 mM Tris pH 7.4.

A further experiment has as its target T2, ArcB (Azoarcus olearius, UniProt A1KCI0).
T2 construct: gene azo3920; full gene; CherryTag-His6 fusion cut off with TEV protease; E. coli BL21 (DE3) Star
As to the kind of experiment: GC-MS product detection after MSTFA derivatization. In kind it is biochemical. Conditions: 1 mM substrate, 2 µg ArcB, 100 mM Tris pH 7.4, 37 °C, 10 or 60 min.

T2 sequence (A1KCI0 entry or part of it): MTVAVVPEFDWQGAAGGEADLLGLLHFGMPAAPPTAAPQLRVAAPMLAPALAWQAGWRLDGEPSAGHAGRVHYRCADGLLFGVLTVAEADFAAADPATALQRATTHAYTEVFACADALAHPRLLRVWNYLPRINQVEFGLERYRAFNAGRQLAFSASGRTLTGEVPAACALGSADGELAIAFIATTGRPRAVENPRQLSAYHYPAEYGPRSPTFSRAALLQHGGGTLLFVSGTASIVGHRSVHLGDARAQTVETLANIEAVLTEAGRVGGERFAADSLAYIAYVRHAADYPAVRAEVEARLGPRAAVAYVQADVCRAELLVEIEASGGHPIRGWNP
T1 sequence (A1K222 entry or part of it): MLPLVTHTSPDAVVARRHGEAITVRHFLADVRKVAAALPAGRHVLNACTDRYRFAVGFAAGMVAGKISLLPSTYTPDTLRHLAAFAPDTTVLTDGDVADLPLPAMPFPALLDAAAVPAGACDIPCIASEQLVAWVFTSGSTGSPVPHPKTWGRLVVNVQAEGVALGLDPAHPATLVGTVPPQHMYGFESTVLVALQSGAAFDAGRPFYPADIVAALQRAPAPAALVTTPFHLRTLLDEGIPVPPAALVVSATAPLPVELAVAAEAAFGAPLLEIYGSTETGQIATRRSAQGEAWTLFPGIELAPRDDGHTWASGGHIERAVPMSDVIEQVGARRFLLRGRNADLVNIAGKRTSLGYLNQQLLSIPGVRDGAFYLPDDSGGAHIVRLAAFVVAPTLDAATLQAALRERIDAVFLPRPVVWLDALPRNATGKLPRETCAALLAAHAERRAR

Take `O=C(O)c1cccc(O)c1` [3-hydroxybenzoic acid]: the “MALDI-MS ATP-pyrophosphate isotopic exchange” value on ArcT (adenylation, [γ-18O4]-ATP) is listed as “MALDI-MS analysis showed ATP-label exchange in assays with 3-HBA”. For the same compound, the “GC-MS product detection after MSTFA derivatization” value at ArcB (formed from chorismic acid) is on record as 3-HBA was only detectable in assays containing ArcB.
On to `Nc1ncnc2c1ncn2[C@@H]1O[C@H](COP(=O)(O)OP(=O)(O)OP(=O)(O)O)[C@@H](O)[C@H]1O` [[γ-^18O4]-ATP], for which, on ArcT (3-HBA as co-substrate, labelled compound), the “MALDI-MS ATP-pyrophosphate isotopic exchange” value is given as “MALDI-MS analysis showed ATP-label exchange in assays with 3-HBA”.
On to `C=C(O[C@@H]1C=C(C(=O)O)C=C[C@H]1O)C(=O)O` [chorismic acid], for which, at ArcB, the “GC-MS product detection after MSTFA derivatization” value was 3-HBA was only detectable in assays containing ArcB.
